{
  "source": "patent US8420686B2",
  "about": "“Linked diimidazole antivirals” (Enanta Pharmaceuticals, Inc., priority 2009, dated 2013)",
  "note": "pEC50: −log10 of the molar value.",
  "data": [
    {"test_system": "HCV 1b genotype replicon", "experiment": "HCV genotype-1b replicon assay (qRT-PCR or luciferase)", "assay_type": "cell-based", "details": "Hepatitis C virus; HCV 1b replicon cell lines (SGR 11-7 or Huh-luc/neo-ET); qRT-PCR or luciferase readout; read-out: Genotype-1b replicon EC50 Range", "excerpt": "HCV replicon cell lines (kindly provided by R. Bartenschlager) isolated from colonies as described by Lohman et al. (Lohman et al. (1999) Science 285: 110-113, expressly incorporated by reference in its entirety) and used for all experiments. The HCV replicon has the nucleic acid sequence set forth in EMBL Accession No.: AJ242651, the coding sequence of which is from nucleotides 1801 to 8406.\nThe coding sequence of the published HCV replicon was synthesized and subsequently assembled in a modified plasmid pBR322 (Promega, Madison, Wis.) using standard molecular biology techniques. One replicon cell line (“SGR 11-7”) stably expresses HCV replicon RNA which consists of (i) the HCV 5′UTR fused to the first 12 amino acids of the capsid protein, (ii) the neomycin phosphotransferase gene (neo), (iii) the IRES from encephalomyocarditis virus (EMCV), and (iv) HCV NS2 to NS5B genes and the HCV 3′UTR. […]\nEC50 values of single agent compounds and combinations were determined by HCV RNA detection using quantitative RT-PCR, according to the manufacturer's instructions, with a TaqMan® One-Step RT-PCR Master Mix Reagents Kit (Cat#AB 4309169, Applied Biosystems) on an ABI Model 7500 thermocycler. The TaqMan primers used for detecting and quantifying HCV RNA were obtained from Integrated DNA Technologies. HCV RNA was normalized to GAPDH RNA levels in drug-treated cells, which is detected and quantified using the Human GAPDH Endogenous Control Mix (Applied Biosystems, AB 4310884E). […] Chemical agent cytotoxicity is evaluated using an MTS assay according to the manufacturer's directions (Promega). […]", "values": [
      {"smiles": "CN(C)C(C(=O)N1CCC[C@H]1c1ncc(-c2ccc3cc4cc(-c5cnc([C@@H]6CCCN6C(=O)[C@@H](c6ccccc6)N(C)C)[nH]5)ccc4cc3c2)[nH]1)c1ccccc1", "note": "(stereo partly drawn) [Example 1-b]", "pEC50": "> 9.00"},
      {"smiles": "CN(C)[C@@H](C(=O)N1CCC[C@H]1c1ncc(-c2ccc(Oc3cccc(-c4cnc([C@@H]5CCCN5C(=O)[C@@H](c5ccccc5)N(C)C)[nH]4)c3)cc2)[nH]1)c1ccccc1", "note": "[Example 1-f]", "pEC50": "> 9.00"},
      {"smiles": "CN(C)[C@@H](C(=O)N1CCC[C@H]1c1ncc(-c2ccc3c(c2)Cc2cc(-c4cnc([C@@H]5CCCN5C(=O)[C@@H](c5ccccc5)N(C)C)[nH]4)ccc2-3)[nH]1)c1ccccc1", "note": "[Example 2]", "pEC50": "> 9.00"}
    ]}
  ]
}
